Experimental data from patent publication US20230322788A1, “IMIDAZOTRIAZINE AND PYRROLOPYRIMIDINE DERIVATIVES AS KRAS G12C INHIBITORS” (BeiGene, Ltd., priority 2020, published 2023).

Target: KRAS (aa 1-169) G12C, C51S, C80L, C118S (Homo sapiens (Human), UniProt P01116, C118S/C51S/C80L/G12C)
Experiment: KRAS G12C SOS1-mediated nucleotide exchange / cRaf RBD binding FRET assay (Biochemical Functional Assay)
Conditions: GDP-loaded KRAS G12C pre-incubated with compound at 24° C. for 3 hrs; SOS1, GTPγS, GST-cRaf RBD; inhibition of nucleotide exchange
Protocol: The KRAS ([…]) G12C, C51S, C80L, C118S with a His-tag was expressed, purified and loaded with GDP in house. All protein and substrate solutions were prepared in assay buffer containing 25 mM HEPES pH7.5, 10 mM MgCl2, and 0.01% Triton X-100. Purified GDP-loaded KRAS (aa 1-169) G12C, C51S, C80L, C118S protein was pre-incubated with a serially diluted compound at 24° C. for 3 hrs. Purified SOS1 (aa 564-1049) protein, GTPYS (Sigma) and GST-cRaf RBD (aa 1-149) were then added to each well and incubated at 24° C. for additional 3 hrs. […] Following the incubation, Mab Anti-6HIS-Tb cryptate (Cisbio) and Mab Anti GST-XL665 (Cisbio) were added and further incubated at 24° C. for 3 hrs. The binding interaction between active GTPγS KRAS G12C and GST-cRaf RBD brings the Tb and XL665 into close proximity enabling an increased FRET signal (Ex337 nm, Em665 nm/620 nm). The inhibition percentage of nucleotide exchange reaction in presence of increasing concentrations of compounds was calculated based on the ratio of fluorescence at 665 nm to that at 620 nm detected on a BMG PHERAstar FSX instrument. The IC50 value of each compound was calculated from fitting the data to the four-parameter logistic model by Dotmatics.

Chain of KRAS (aa 1-169) G12C, C51S, C80L, C118S (P01116 other isoform, or with tags, fused parts or gaps G12C/C51S/C80L/C118S): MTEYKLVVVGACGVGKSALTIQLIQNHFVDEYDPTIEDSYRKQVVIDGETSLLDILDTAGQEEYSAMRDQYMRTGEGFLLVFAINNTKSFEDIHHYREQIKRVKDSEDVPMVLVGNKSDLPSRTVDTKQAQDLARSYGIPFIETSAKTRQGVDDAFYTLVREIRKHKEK

In order of rising IC50:
1. C=CC(=O)N1CCN(c2nc(OC[C@@H]3CCCN3C)nn3c(Cc4ccc(O)c5ccccc45)cnc23)C[C@@H]1CC#N [Compound A19, 2-((S)-1-acryloyl-4-(7-((4-hydroxynaphthalen-1-yl)methyl)-2-(((S)-1-methylpyrrolidin-2-yl)methoxy)imidazo[2,1-f][1,2,4]triazin-4-yl)piperazin-2-yl)acetonitrile]  0.0096 µM
2. C=CC(=O)N1CCN(c2nc(OC[C@@H]3CCCN3C)nc3c(Cc4cc(O)cc5ccccc45)cn(CC)c23)C[C@@H]1CC#N [Compound B2, 2-((S)-1-acryloyl-4-(5-ethyl-7-((3-hydroxynaphthalen-1-yl)methyl)-2-(((S)-1-methylpyrrolidin-2-yl)methoxy)-5H-pyrrolo[3,2-d]pyrimidin-4-yl)piperazin-2-yl)acetonitrile]  0.013 µM
3. C=CC(=O)N1CCN(c2nc(OC[C@@H]3CCCN3C)nn3c(Cc4c(O)cccc4F)cnc23)C[C@@H]1CC#N [Compound A20, 2-((S)-1-acryloyl-4-(7-(2-fluoro-6-hydroxybenzyl)-2-(((S)-1-methylpyrrolidin-2-yl)methoxy)imidazo[2,1-f][1,2,4]triazin-4-yl)piperazin-2-yl)acetonitrile]  0.0191 µM
4. C=CC(=O)N1CCN(c2nc(OC[C@@H]3C[C@@H](F)CN3C)nc3c(Cc4cc(O)cc5ccccc45)cn(C)c23)C[C@@H]1CC#N [Compound B3, 2-((S)-1-acryloyl-4-(2-(((2S,4R)-4-fluoro-1-methylpyrrolidin-2-yl)methoxy)-7-((3-hydroxynaphthalen-1-yl)methyl)-5-methyl-5H-pyrrolo[3,2-d]pyrimidin-4-yl)piperazin-2-yl)acetonitrile]  0.0203 µM
5. C=CC(=O)N1CCN(c2nc(OC[C@@H]3CCCN3C)nn3c(Cc4cc(O)cc5ccccc45)cnc23)C[C@@H]1CC#N [Compound A5, 2-((S)-1-acryloyl-4-(7-((3-hydroxynaphthalen-1-yl)methyl)-2-(((S)-1-methylpyrrolidin-2-yl)methoxy)imidazo[2,1-f][1,2,4]triazin-4-yl)piperazin-2-yl)acetonitrile]  0.029 µM
6. C=CC(=O)N1CCN(c2nc(OC[C@@H]3CCCN3C)nn3c(Cc4cccc5ccccc45)cnc23)C[C@@H]1CC#N [Compound A4, 2-((S)-1-acryloyl-4-(2-(((S)-1-methylpyrrolidin-2-yl)methoxy)-7-(naphthalen-1-ylmethyl)imidazo[2,1-f][1,2,4]triazin-4-yl)piperazin-2-yl)acetonitrile]  0.0467 µM
7. C=CC(=O)N1CCN(c2nc(OC[C@@H]3CCCN3C)nn3c(Cc4cccc5cccc(C)c45)cnc23)C[C@@H]1CC#N [Compound A7, 2-((S)-1-acryloyl-4-(7-((8-methylnaphthalen-1-yl)methyl)-2-(((S)-1-methylpyrrolidin-2-yl)methoxy)imidazo[2,1-f][1,2,4]triazin-4-yl)piperazin-2-yl)acetonitrile]  0.0478 µM
8. C=CC(=O)N1CCN(c2nc(OC[C@@H]3CCCN3C)nc3c(Cc4c(C(F)(F)F)ccc5[nH]ncc45)c[nH]c23)C[C@@H]1CC#N [Compound B5, 2-((S)-1-acryloyl-4-(2-(((S)-1-methylpyrrolidin-2-yl)methoxy)-7-((5-(trifluoromethyl)-1H-indazol-4-yl)methyl)-5H-pyrrolo[3,2-d]pyrimidin-4-yl)piperazin-2-yl)acetonitrile]  0.0641 µM
9. C=CC(=O)N1CCN(c2nc(OC[C@@H]3CCCN3C)nn3c(Cc4cccc5cccc(Cl)c45)cnc23)C[C@@H]1CC#N [Compound A6, 2-((S)-1-acryloyl-4-(7-((8-chloronaphthalen-1-yl)methyl)-2-(((S)-1-methylpyrrolidin-2-yl)methoxy)imidazo[2,1-f][1,2,4]triazin-4-yl)piperazin-2-yl)acetonitrile]  0.1 µM
10. C=CC(=O)N1CCN(c2nc(OC[C@@H]3CCCN3C)nn3c(Cc4cccc5c4OCC5)cnc23)C[C@@H]1CC#N [Compound A13, 2-((S)-1-acryloyl-4-(7-((2,3-dihydrobenzofuran-7-yl)methyl)-2-(((S)-1-methylpyrrolidin-2-yl)methoxy)imidazo[2,1-f][1,2,4]triazin-4-yl)piperazin-2-yl)acetonitrile]  0.101 µM
11. C=CC(=O)N1CCN(c2nc(OC[C@@H]3CCCN3C)nn3c(Cc4ccc(OC)c5ccccc45)cnc23)C[C@@H]1CC#N [Compound A10, 2-((S)-1-acryloyl-4-(7-((4-methoxynaphthalen-1-yl)methyl)-2-(((S)-1-methylpyrrolidin-2-yl)methoxy)imidazo[2,1-f][1,2,4]triazin-4-yl)piperazin-2-yl)acetonitrile]  0.187 µM
12. C=CC(=O)N1CCN(c2nc(OC[C@@H]3CCCN3C)nn3c(Cc4c(F)cccc4Cl)cnc23)C[C@@H]1CC#N [Compound A11, 2-((S)-1-acryloyl-4-(7-(2-chloro-6-fluorobenzyl)-2-(((S)-1-methylpyrrolidin-2-yl)methoxy)imidazo[2,1-f][1,2,4]triazin-4-yl)piperazin-2-yl)acetonitrile]  0.215 µM
13. C=CC(=O)N1CCN(c2nc(OC[C@@H]3CCCN3C)nc3c(Cc4cc(O)cc5ccccc45)cn(C)c23)CC1 [Compound B4, (S)-1-(4-(7-((3-hydroxynaphthalen-1-yl)methyl)-5-methyl-2-((1-methylpyrrolidin-2-yl)methoxy)-5H-pyrrolo[3,2-d]pyrimidin-4-yl)piperazin-1-yl)prop-2-en-1-one]  0.329 µM
14. C=CC(=O)N1CCN(c2nc(OC[C@@H]3CCCN3C)nn3c(Cc4cc(O)cc5ccccc45)cnc23)CC1 [Compound A2, (S)-1-(4-(7-((3-hydroxynaphthalen-1-yl)methyl)-2-((1-methylpyrrolidin-2-yl)methoxy)imidazo[2,1-f][1,2,4]triazin-4-yl)piperazin-1-yl)prop-2-en-1-one]  0.427 µM
15. C=CC(=O)N1CCN(c2nc(OC[C@@H]3CCCN3C)nn3c(C(=O)c4cccc5ccccc45)cnc23)C[C@@H]1CC#N [Compound A23, 2-((S)-4-(7-(1-naphthoyl)-2-(((S)-1-methylpyrrolidin-2-yl)methoxy)imidazo[2,1-f][1,2,4]triazin-4-yl)-1-acryloylpiperazin-2-yl)acetonitrile]  0.489 µM
16. C=C(F)C(=O)N1CCN(c2nc(OC[C@@H]3CCCN3C)nc3c(Cc4c(Cl)c(F)cc5[nH]ncc45)c[nH]c23)C[C@@H]1CC#N [Compound B6, 2-((S)-4-(7-((5-chloro-6-fluoro-1H-indazol-4-yl)methyl)-2-(((S)-1-methylpyrrolidin-2-yl)methoxy)-5H-pyrrolo[3,2-d]pyrimidin-4-yl)-1-(2-fluoroacryloyl)piperazin-2-yl)acetonitrile]  0.639 µM
17. C=CC(=O)N1CCN(c2nc(OC[C@@H]3CCCN3C)nn3c(Cc4cccc5[nH]ncc45)cnc23)C[C@@H]1CC#N [Compound A15, 2-((S)-4-(7-((1H-indazol-4-yl)methyl)-2-(((S)-1-methylpyrrolidin-2-yl)methoxy)imidazo[2,1-f][1,2,4]triazin-4-yl)-1-acryloylpiperazin-2-yl)acetonitrile]  1.18 µM
18. C=CC(=O)N1CCN(c2nc(OC[C@@H]3CCCN3C)nn3c(Cc4cccc5ccccc45)cnc23)[C@@H](C)C1 [Compound A17, 1-((S)-3-methyl-4-(2-(((S)-1-methylpyrrolidin-2-yl)methoxy)-7-(naphthalen-1-ylmethyl)imidazo[2,1-f][1,2,4]triazin-4-yl)piperazin-1-yl)prop-2-en-1-one]  2.93 µM
19. C=CC(=O)N1CCN(c2nc(OC[C@@H]3CCCN3C)nn3c(Cc4cccc5ccccc45)cnc23)CC1 [Compound A1, (S)-1-(4-(2-((1-methylpyrrolidin-2-yl)methoxy)-7-(naphthalen-1-ylmethyl)imidazo[2,1-f][1,2,4]triazin-4-yl)piperazin-1-yl)prop-2-en-1-one]  3.28 µM
20. C=CC(=O)N1CCN(c2nc(OC[C@@H]3CCCN3C)nn3c(Cc4ccc5ccccc5c4)cnc23)C[C@@H]1CC#N [Compound A8, 2-((S)-1-acryloyl-4-(2-(((S)-1-methylpyrrolidin-2-yl)methoxy)-7-(naphthalen-2-ylmethyl)imidazo[2,1-f][1,2,4]triazin-4-yl)piperazin-2-yl)acetonitrile]  7.7 µM

Same assay, conditions: same assay; the cell prints uM although the column head says nmol

`C=CC(=O)N1CCN(c2nc(OC[C@@H]3CCCN3C)nn3c(Cc4cccc5[nH]ncc45)cnc23)C[C@@H]1CC(N)=O` [Compound A16, 2-((S)-4-(7-((1H-indazol-4-yl)methyl)-2-(((S)-1-methylpyrrolidin-2-yl)methoxy)imidazo[2,1-f][1,2,4]triazin-4-yl)-1-acryloylpiperazin-2-yl)acetamide] and `C=CC(=O)N1CCN(c2nc(OC[C@@H]3CCCN3C)nn3c(-c4cc(OC)cc5ccccc45)cnc23)C[C@@H]1CC#N` [Compound A3, 2-((S)-1-acryloyl-4-(7-(3-methoxynaphthalen-1-yl)-2-(((S)-1-methylpyrrolidin-2-yl)methoxy)imidazo[2,1-f][1,2,4]triazin-4-yl)piperazin-2-yl)acetonitrile] cannot be ordered by IC50: over 10 µM for the first, over 10 µM for the second.
